According to US20250304623A1, “PEPTIDES FOR INTRACELLULAR DELIVERY” (UNIVERSIDADE DE SANTIAGO DE COMPOSTELA, priority 2022, published 2025):
*: point of attachment. NHNH2 = NN*

Assays:
Format in all cases: cell-based
[1] = test system: Hela cells expressing EGFP; assay: Cas9-RNP delivery against EGFP (gene editing, plate reader), HeLa
Procedure: (§1) To generate an EGFP expressing HeLa cell line, HeLa cells were transfected with EGFP pDNA (pEGFP-C1, Clontech) and stable transfectants were selected with 400 μg/mL of G-418 (Millipore). Green clones were selected by epifluorescence microscopy and tested for EGFP expression stability through several passages. […] All other EGFP-expressing cell lines were obtained in a similar way from parent non-EGFP-expressing cell lines.
(§2) Cells expressing EGFP were seeded in a 96 well plate the day before the experiment at a concentration of 50,000 cell/mL (100 μL/w) in DMEM+10% FBS+1% Gln-Abt. For robotic library screening, the delivery of Cas9-RNP against EGFP (RNP designed to knock-out the gene encoding for the enhanced green fluorescent protein (EGFP)) was performed. For RNP assembly, 9.2 μL of crRNA and 9.2 μL of tracrRNA were mixed in 211.6 μL of Nuclease-Free Duplex Buffer (IDT), incubated for 5 min at 95° C. and slowly cooled at rt (see I. Lostalé-Seijo, et al. Peptide/Cas9 nanostructures for ribonucleoprotein cell membrane transport and gene edition, Chem. Sci., 2017). Cas9 protein was dissolved in DMEM at a final concentration of 4 μM and equal volumes of the RNA complex and Cas9 were mixed and incubated for 5 min at rt. 75 μL of the corresponding amphiphile concentrations were added to 5 μL of RNP at 2 μM. The mixture was shaken for 30 min at room temperature before the addition to the cells. The cell medium was aspirated, and cells were washed twice with PBS. Cells were covered with 30 μL of DMEM and 20 μL of the RNP/amphiphile complexes were added to the cells (final peptide concentrations=2.5, 5 and 10 μM; final Cas9-RNP concentration=50 nM) and incubated for 4 h. After the incubation, the medium was replaced by 100 μL of fresh DMEM supplemented with 10% FBS. The total EGFP fluorescence was quantified after 72 h in a plate reader (FIG. 2, Table 1 (right) and Table 6). All experiments were done in triplicate.
(§3) Tables 1-7: RLuc (pDNA) or EGFP (mRNA) expression levels were normalized to Lipofectamine reagents (value=1) and expressed as fold-times signal increase. In the case of siRNA, the siRNA treated cells fluorescence was compared with siMOCK control fluorescence, while Cas9-RNP mediated knockout was measured against the fluorescence of untreated cells. In both siRNA and Cas9-RNP, values are expressed as % fluorescence reduction. Amphiphile concentration was 5 μM in all cases. All experiments were performed in triplicate.
(§4) Tables 26-31 show the mean (triplicates) percentage of gene editing, accounted by GFP fluorescence intensity decrease (% of reduction), measured after the transfection of Cas9-RNP by different amphiphiles at different concentrations in a variety of cell lines. Background values, accounted by untreated control cells, were subtracted for processing.

[2] = test system: ARPE19 cells expressing EGFP; assay: Cas9-RNP delivery against EGFP (gene editing, plate reader), ARPE19
Procedure: as §1
as §2, with “triplicate. […]” for “triplicate.”
as §4

[3] = test system: A549 cells expressing EGFP; assay: EGFP-targeting siRNA delivery (GFP silencing vs siMOCK), A549; settings: A549 cells
Procedure: as §1
Cells expressing EGFP were seeded in a 96 well plate the day before the experiment at a concentration of 50,000 cell/mL (100 μL/w) in DMEM+10% FBS+1% Gln-Abt. For robotic library screening, the delivery of an EGFP-targeting siRNA (EGFP: enhanced green fluorescent protein, Ambion® Silencer® GFP Positive Control siRNA (siGFP) (AM4626)) in six different cell lines expressing EGFP was performed. […] The mixture was shaken for 30 min at room temperature (rt) before the addition to the cells. The cell medium was aspirated, and cells were washed twice with PBS. Finally, 50 μL of the solution of siRNA/amphiphile complexes were added to the cells and incubated for 4 h. After transfection, the medium was replaced by 100 μL of fresh DMEM supplemented with 10% FBS. The fluorescence knockdown was quantified after 72 h in a plate reader, by comparison with cells transfected with a non-targeting siRNA control (siMOCK, Silencer™ Negative Control No. 1 siRNA (siMOCK) (AM4611)). EGFP knockdown was compared with Lipofectamine® RNAiMAX silencing efficiency (30-60% depending on cell line, defined with a numeric value in the below tables). All experiments were done in triplicate.
as §3
as §4, with “20-25” for “26-31”, “GFP-silencing,” for “gene editing,”, “by” for “by GFP”, “relative to a non-targeting siRNA (siMOCK) control,” for “(% of reduction),”, “siRNA” for “Cas9-RNP”

Substance	percentage of gene editing, GFP fluorescence intensity decrease (% of reduction) ([1]; Dodecanal, 5 μM, Hela cells)	percentage of gene editing, GFP fluorescence intensity decrease (% of reduction) ([1]; Dodecanal, 10 μM, HeLa cells)	percentage of gene editing, GFP fluorescence intensity decrease (% of reduction) ([1]; Dodecanal, 15 μM, Hela cells)	percentage of gene editing, GFP fluorescence intensity decrease (% of reduction) ([1]; Myristoleyl, 5 μM, HeLa cells)	percentage of gene editing, GFP fluorescence intensity decrease (% of reduction) ([1]; Myristoleyl, 10 μM, HeLa cells)	percentage of gene editing, GFP fluorescence intensity decrease (% of reduction) ([1]; Myristoleyl, 15 μM, Hela cells)	percentage of gene editing, GFP fluorescence intensity decrease (% of reduction) ([2]; Dodecanal, 5 μM)	percentage of gene editing, GFP fluorescence intensity decrease (% of reduction) ([2]; Dodecanal, 10 μM)	percentage of GFP-silencing relative to siMOCK ([3]; Dodecanal, 5 μM)	percentage of GFP-silencing relative to siMOCK ([3]; Dodecanal, 10 μM)	percentage of GFP-silencing relative to siMOCK ([3]; Dodecanal, 15 μM)	other results
Ac-RK*LRK*K*L-NH2 (Ac-RK(NHNH2)LRK(NHNH2)K(NHNH2)L-NH2; not fully specified; printed as Ac-RK*LRK*K*L-NH2; also: K*2,K*5,K*6: native or modified lysine (ε-amide to a linker)) [Peptide 7.3]	10%	2%	−3%	24%	27%	25%	9%	14%	7%	22%	19%	percentage of gene editing, GFP fluorescence intensity decrease (% of reduction) ([1]; Oleyl, 10 μM, HeLa cells): −9%; percentage of gene editing, GFP fluorescence intensity decrease (% of reduction) ([1]; Palmitoleyl, 5 μM, HeLa cells): 20%; percentage of gene editing, GFP fluorescence intensity decrease (% of reduction) ([1]; Palmitoleyl, 10 μM, HeLa cells): 13%; percentage of gene editing, GFP fluorescence intensity decrease (% of reduction) ([1]; Petroselinyl, 5 μM, HeLa cells): 6%; percentage of gene editing, GFP fluorescence intensity decrease (% of reduction) ([1]; Petroselinyl, 10 μM, Hela cells): 11%; percentage of gene editing, GFP fluorescence intensity decrease (% of reduction) ([1]; Petroselinyl, 15 μM, Hela cells): 33%; percentage of gene editing, GFP fluorescence intensity decrease (% of reduction) ([2]; Oleyl, 5 μM): 22%; percentage of gene editing, GFP fluorescence intensity decrease (% of reduction) ([2]; Oleyl, 10 μM): 35%; percentage of gene editing, GFP fluorescence intensity decrease (% of reduction) ([2]; Oleyl, 15 μM): 42%; percentage of gene editing, GFP fluorescence intensity decrease (% of reduction) ([2]; Palmitoleyl, 5 μM): 7%; percentage of gene editing, GFP fluorescence intensity decrease (% of reduction) ([2]; Palmitoleyl, 10 μM): 9%; percentage of gene editing, GFP fluorescence intensity decrease (% of reduction) ([2]; Palmitoleyl, 15 μM): 12%; percentage of gene editing, GFP fluorescence intensity decrease (% of reduction) ([2]; Petroselinyl, 5 μM): 25%; percentage of gene editing, GFP fluorescence intensity decrease (% of reduction) ([2]; Petroselinyl, 10 μM): 13%; percentage of GFP-silencing relative to siMOCK ([3]; Oleyl, 5 μM): 3%; percentage of GFP-silencing relative to siMOCK ([3]; Oleyl, 15 μM): 7%; percentage of GFP-silencing relative to siMOCK ([3]; Petroselinyl, 10 μM): 13%
Ac-RK*LRRK*L-NH2 (Ac-RK(NHNH2)LRRK(NHNH2)L-NH2; not fully specified; printed as Ac-RK*LRRK*L-NH2; also: K*2,K*6: native or modified lysine (ε-amide to a linker)) [Peptide 7.2]	6%	−22%	−26%	−7%	−18%	−6%	0%	0%	5%	11%	8%	percentage of gene editing, GFP fluorescence intensity decrease (% of reduction) ([2]; Myristoleyl, 5 μM): 3%; percentage of gene editing, GFP fluorescence intensity decrease (% of reduction) ([2]; Myristoleyl, 15 μM): −8%; percentage of GFP-silencing relative to siMOCK ([3]; Myristoleyl, 5 μM): 8%; percentage of GFP-silencing relative to siMOCK ([3]; Myristoleyl, 10 μM): 14%; percentage of GFP-silencing relative to siMOCK ([3]; Myristoleyl, 15 μM): 16%
